Assay [1] is filed under the species Rattus norvegicus. The assay is described as follows: Tested for maximum response in depolarization of isolated rat vagus nerve measured at dose 10 uM. The class given is functional.
The target of assay [2] is 5-hydroxytryptamine receptor 4 (Homo sapiens, UniProt Q13639). The assay can be described thus: Binding affinity against 5-Hydroxytryptamine 4 receptor.
Assay [3] concerns the target T1, Muscarinic acetylcholine receptor M4 (Homo sapiens, UniProt P08173).
T1 sequence (P08173 whole entry): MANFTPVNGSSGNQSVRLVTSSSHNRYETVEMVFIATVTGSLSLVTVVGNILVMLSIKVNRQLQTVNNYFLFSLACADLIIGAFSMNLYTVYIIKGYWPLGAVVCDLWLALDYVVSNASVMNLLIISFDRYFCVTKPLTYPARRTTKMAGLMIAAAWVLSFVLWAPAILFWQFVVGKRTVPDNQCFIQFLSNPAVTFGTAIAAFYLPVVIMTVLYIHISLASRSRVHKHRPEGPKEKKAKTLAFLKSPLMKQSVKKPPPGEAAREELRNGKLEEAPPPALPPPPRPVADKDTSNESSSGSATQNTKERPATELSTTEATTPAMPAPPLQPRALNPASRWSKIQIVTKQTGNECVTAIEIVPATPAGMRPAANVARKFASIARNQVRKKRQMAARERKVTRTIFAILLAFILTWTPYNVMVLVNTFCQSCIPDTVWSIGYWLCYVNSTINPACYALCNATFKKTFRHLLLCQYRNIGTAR
The assay is described as follows: Binding affinity against Muscarinic acetylcholine receptor M4.

Chain of 5-hydroxytryptamine receptor 4 (Q13639 whole entry): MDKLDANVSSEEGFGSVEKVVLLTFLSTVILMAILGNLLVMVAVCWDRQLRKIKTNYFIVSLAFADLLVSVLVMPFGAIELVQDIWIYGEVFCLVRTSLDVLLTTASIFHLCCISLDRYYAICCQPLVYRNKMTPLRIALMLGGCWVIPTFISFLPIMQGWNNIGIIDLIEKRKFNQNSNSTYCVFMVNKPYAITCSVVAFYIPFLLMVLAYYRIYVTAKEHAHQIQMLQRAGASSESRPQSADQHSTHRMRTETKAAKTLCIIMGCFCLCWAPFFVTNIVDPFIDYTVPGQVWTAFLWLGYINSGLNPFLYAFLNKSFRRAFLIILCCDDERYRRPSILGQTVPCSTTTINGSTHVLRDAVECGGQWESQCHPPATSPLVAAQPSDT

As to `Cn1cc(C(=O)C(=O)N[C@@H]2CN3CCC2CC3)c2ccccc21`, the Max response in assay [1] was found to be 167 uV. Further, in assay [2], the Ki is 0.398 µM.

Consider `Cn1cc(C(=O)C(=O)N[C@H]2CN3CCC2CC3)c2ccccc21`, for which, in assay [3], the inhibitory constant (Ki) was 25.1 µM.

The values above are taken from ChEMBL document CHEMBL1128795, “N-(Quinuclidin-3-yl)-2-(1-methyl-1H-indol-3-yl)-2-oxo-acetamide: a high affinity 5-HT3 receptor partial agonist” (Bioorg Med Chem Lett, 1995).
